Reference: US12576082B2, “METTL16 inhibitors and uses thereof” (City of Hope, priority 2019, dated 2026)
Blank lines part the entries; values can stand above or below the compound they belong to.

How the values were obtained:
[1] = system: human NOMO-1 AML cells; assay: Viability of human NOMO-1 AML cells (MTT, CellTiter 96); assay type: cell-based; conditions: NOMO-1 cells, 10,000 cells/well, 72 h treatment, read-out: IC50 in inhibiting the viability of human NOMO-1 AML cells
Method: (§1) Cell viability and proliferation assay. Cell viability and proliferation were performed with CellTiter 96 Non-Radioactive Cell Proliferation Assay (MTT, […], Promega). To verify the function of METTL16 inhibitor, cancer cells were seeded into 96-well plate and treated with a series of drug concentration in triplicates. For the cell proliferation with METTL16 knockdown stable cell lines were seeded into 96-well plates, and cultured in the incubator at 37° C. with 5% CO2. 15 μl of the Dye Solution was added into each well. After incubation of 2-4 h, 100 μl of the Solubilization Solution/Stop Mix was added to each well. Finally, the absorbance was determined at 570 nm on the next day.
The compounds described herein were tested for their ability to inhibit the viability of human NOMO-1 AML cells. […] Cell viability. NOMO-1 cells were seeded into 96-well plate in the concentration of 10,000 cells/well and treated with compounds in triplicates for 72 h. Cell viability was assessed by CellTiter 96 Non-Radioactive Cell Proliferation Assay (MTT, G4100, Promega) following the manufacturer's protocols.

[2] = system: AML cells; assay: Cell viability and growth in AML cells (FIGS. 9A-9B); assay type: cell-based
Method: as §1

[3] = system: AML and other cancers; assay: Cell viability of cancer cell lines on CDH24 treatment (MTT); assay type: cell-based, human
Method: as §1
FIG. 4A provides a Western blots analysis showing the levels of METTL16 expression in various AML cell lines (Kasumi-1, MONOMAC6 (MM6), K562, ML-2, 9.3ITD, U937) and normal bone marrow (BM) mononuclear cells. Actin served as a loading control. […] The values were detected by MTT assays 48 or 72 hours post treatment. In FIGS. 4A-4K: *p<0.05; **p<0.01; ***p<0.001; t test. Error bars, mean±SEM (n≥3)

[4] = molecular target: T1, METTL16 (Homo sapiens, UniProt Q86W50); assay: Drug affinity responsive target stability (DARTS) in U937 cell lysates; assay type: binding; conditions: CDH24 0.1 uM to 500 uM, pronase digestion, immunoblot
T1 construct: endogenous in cells; host or cells: U937, Kasumi-1, MA9.3RAS (human AML cells)
T1 sequence (Q86W50 1-562): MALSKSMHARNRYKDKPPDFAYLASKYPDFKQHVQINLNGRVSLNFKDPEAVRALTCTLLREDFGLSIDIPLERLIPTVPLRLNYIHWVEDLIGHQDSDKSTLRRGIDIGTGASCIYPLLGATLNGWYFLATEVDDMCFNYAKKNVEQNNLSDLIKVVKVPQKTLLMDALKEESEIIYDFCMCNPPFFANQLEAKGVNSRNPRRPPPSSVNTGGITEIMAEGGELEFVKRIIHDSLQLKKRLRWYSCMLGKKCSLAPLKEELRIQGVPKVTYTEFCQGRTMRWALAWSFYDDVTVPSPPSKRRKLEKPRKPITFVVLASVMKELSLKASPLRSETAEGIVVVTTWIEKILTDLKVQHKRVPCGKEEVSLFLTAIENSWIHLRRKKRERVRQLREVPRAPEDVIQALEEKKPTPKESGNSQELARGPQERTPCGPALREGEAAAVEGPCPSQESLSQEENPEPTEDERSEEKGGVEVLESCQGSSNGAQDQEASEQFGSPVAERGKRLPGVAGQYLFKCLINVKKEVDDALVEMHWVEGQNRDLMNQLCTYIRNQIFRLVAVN
Method: Drug Affinity Responsive Targets Stability (DARTS). […] In short, 4×10^7 U937 cells were collected, washed with chilled PBS, and lysed in 600 ul M-PER (78501, Thermo Fisher Scientific) supplement with protease inhibitor cocktail and phosphatase inhibitor cocktail. The cells were lysed on ice for 10 min, and centrifuged at 18,000 g for 10 min at 4° C. The supernatant was carefully transferred to a new tube. 10× TNC buffer (500 mM Tris-HCl with pH 8.0, 500 mM NaCl, 100 mM CaCl2) was added into lysate, the protein concentration was then detected by BCA assay. The protein concentration diluted with 1× TNC buffer was adjusted to 5 ug/ul. […] The reaction was quenched by addition of protease inhibitor cocktail and the sample was immediately placed on ice. 4× Laemmli Sample Buffer was added to lysate and denatured at 99° C. for 10 min. Finally, western blotting was used to determine the abundance of METTL16.
(§2) For DARTS, U937 cell lysates were treated with CDH-24 (from 0.1 uM to 500 uM) or DMSO; samples were subjected to pronase digestion and detected by immunoblotting. Actin was resistant to subtilizing under these conditions and served as a loading control. […] METTL16 knockdown by shRNAs was confirmed by western blots (FIG. 5D). […] In FIGS. 5A-5F: *p<005; **p<0.01: ***p<0001; t test. Error bars, mean±SEM (n≥3).

[5] = molecular target: T1, METTL16; assay: Cellular thermal shift assay (CETSA) in U937 cells; assay type: binding; conditions: 50 μM CDH24 1 h, different temperatures, immunoblot
Method: Cellular Thermal Shift Assay (CETSA). […] Then, the cells were re-suspended in 1.5 ml PBS supplemented with protease inhibitor cocktail. And the cells were distributed into 10 different 200 ul 8-strip PCR tubes with 100 ul for each tube, heat shocked in the Bio-Rad T100 Thermal Cycler at indicated temperature for 3 min to denature proteins, and immediately cooled down at room temperature for 3 min. cells were lysed using dry ice and two repeated cycles of freeze-thaw, then centrifuged at 20,000 g for 20 min at 4° C. Soluble proteins, collected from the supernatant were denatured with 4× Laemmli Sample Buffer at 99° C. for 10 min. Finally, the protein samples were analyzed by western blot.
as §2

[6] = molecular target: T1, METTL16; assay: m6A dot blot, global m6A in AML cells; assay type: cell-based
Method: m^6A dot blot assay. Total RNA was purified with QIAzol regent, and mixed well with 3 volumes of RNA incubation buffer, then denatured at 65° C. for 5 minutes and cooling down on ice immediately. 200 ul of 10×SSC buffer (S6639, Sigma-Aldrich) was loaded onto the Amersham Hybond-N+ membrane for each well to pre-wet the membrane. Then one volume of 20×SSC buffer was added into the RNA samples before dotted onto the membrane. The UV irradiation was used to crosslink RNA to the membrane. After crosslink, the membrane was stained by 0.02% methylene blue and scanned as loading control. Then, the membrane was blocked with 5% nonfat dry milk at room temperature for 1 h and incubated with anti-m6A antibody (1:2000, Synaptic Systems) overnight at 4° C. Next day, the membrane was incubated with the HRP-conjugated goat anti-rabbit IgG (ab6721, abcam) at room temperature for 1 h and developed with pierce ECL Western blotting Substrate (PI32106, Thermo Fisher).
MB, methyl blue (as loading control). FIGS. 6B-6C show gene-specific m^6A qPCR analysis of m^6A level changes in mRNA transcripts of several known target transcripts of METTL16 in U937 (FIG. 6B) or MA9.3RAS (FIG. 6C) AML cells upon 72 hours treatment of […], relative to cells treated with DMSO.

Compound: Nc1nc(N)c2c(ccc3c2ccn3Cc2ccc(Cl)cc2)n1 [Compound (F)]
- IC50 [1]: 1.55 nM

Compound: Nc1nc(N)c2c(ccc3[nH]ccc32)n1 [Compound H]
- IC50 [1]: 931 nM

Compound: N#Cc1ccc(-n2ccc3c4c(N)nc(N)nc4ccc32)cc1 [Compound (E)]
- IC50 [1]: 20.6 nM

Compound: CC(=O)Nc1ccc(Cn2ccc3c4c(N)nc(N)nc4ccc32)cc1 [Compound D]
- IC50 [1]: 1.4 nM

Compound: Nc1ccc(CO)c(Cn2ccc3c4c(N)nc(N)nc4ccc32)c1 [CDH24-7]
- cell viability and growth in AML cells [2]: inhibit cell viability and growth

Compound: N#Cc1ccc(C(=O)n2ccc3c4c(N)nc(N)nc4ccc32)cc1 [Compound (G)]
- IC50 [1]: 736 nM

- binding to METTL16 by DARTS [4]: direct binding
- binding to METTL16 by CETSA [5]: direct binding
- methyltransferase activity of METTL16 and expression of METTL16 target genes ([6]; FIGS. 6A-6C): inhibitory effect
- levels of global m^6A ([6]; U937, Kasumi-1 and MA9.3RAS AML cells, 48 hours treatment): increases
Compound: Nc1ccc(Cn2ccc3c4c(N)nc(N)nc4ccc32)cc1 [CDH24]
- cell viability and growth in AML and other cancers ([3]; FIGS. 4A-4K): inhibitory effect
- cell viability in ALL, lymphoma, cervical cancer, pancreatic cancer and glioblastoma cell lines ([3]; MTT assay 72 hours post treatment, series of concentrations): inhibitory effects

Compound: Nc1ccc(Cn2ccc3c4c(N)nc(N)nc4ccc32)c(CO)c1 [CDH24-6]
- cell viability and growth in AML cells [2]: inhibit cell viability and growth
